The target in assay [1] is T1, Transient receptor potential cation channel subfamily V member 3 (Homo sapiens, UniProt Q8NET8).
T1 sequence (Q8NET8 whole entry): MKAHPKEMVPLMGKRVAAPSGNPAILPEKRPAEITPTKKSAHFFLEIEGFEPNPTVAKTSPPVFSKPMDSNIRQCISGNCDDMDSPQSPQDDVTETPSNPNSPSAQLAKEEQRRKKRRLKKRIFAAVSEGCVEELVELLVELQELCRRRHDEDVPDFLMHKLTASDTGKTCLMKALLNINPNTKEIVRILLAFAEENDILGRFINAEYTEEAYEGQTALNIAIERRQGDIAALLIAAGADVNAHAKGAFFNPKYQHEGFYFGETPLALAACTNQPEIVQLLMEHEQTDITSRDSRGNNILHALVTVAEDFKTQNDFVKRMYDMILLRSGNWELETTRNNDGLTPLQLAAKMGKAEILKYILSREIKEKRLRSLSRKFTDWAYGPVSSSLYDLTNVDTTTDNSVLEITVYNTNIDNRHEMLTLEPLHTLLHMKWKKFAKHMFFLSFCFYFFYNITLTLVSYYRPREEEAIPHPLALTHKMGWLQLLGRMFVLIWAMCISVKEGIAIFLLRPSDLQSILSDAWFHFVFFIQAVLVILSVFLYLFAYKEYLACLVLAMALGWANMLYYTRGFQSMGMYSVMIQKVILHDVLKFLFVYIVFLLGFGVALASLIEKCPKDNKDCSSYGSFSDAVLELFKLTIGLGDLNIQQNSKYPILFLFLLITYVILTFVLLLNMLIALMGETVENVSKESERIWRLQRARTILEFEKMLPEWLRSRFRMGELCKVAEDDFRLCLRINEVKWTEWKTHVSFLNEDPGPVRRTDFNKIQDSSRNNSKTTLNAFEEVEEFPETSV
Briefly: Agonist activity at ionomycin-stimulated TRPV3 (unknown origin) channel desensitization in presence of carvacrol.

The target in another assay is Cytochrome P450 1A1 (Homo sapiens, UniProt P04798). The assay can be described thus: Inhibition of human recombinant CYP1A1 preincubated with NADPH for 20 mins and measured after 30 min by Lineweaver-burk plots analysis. The format is ADME.
Sequence of Cytochrome P450 1A1 (P04798 whole entry): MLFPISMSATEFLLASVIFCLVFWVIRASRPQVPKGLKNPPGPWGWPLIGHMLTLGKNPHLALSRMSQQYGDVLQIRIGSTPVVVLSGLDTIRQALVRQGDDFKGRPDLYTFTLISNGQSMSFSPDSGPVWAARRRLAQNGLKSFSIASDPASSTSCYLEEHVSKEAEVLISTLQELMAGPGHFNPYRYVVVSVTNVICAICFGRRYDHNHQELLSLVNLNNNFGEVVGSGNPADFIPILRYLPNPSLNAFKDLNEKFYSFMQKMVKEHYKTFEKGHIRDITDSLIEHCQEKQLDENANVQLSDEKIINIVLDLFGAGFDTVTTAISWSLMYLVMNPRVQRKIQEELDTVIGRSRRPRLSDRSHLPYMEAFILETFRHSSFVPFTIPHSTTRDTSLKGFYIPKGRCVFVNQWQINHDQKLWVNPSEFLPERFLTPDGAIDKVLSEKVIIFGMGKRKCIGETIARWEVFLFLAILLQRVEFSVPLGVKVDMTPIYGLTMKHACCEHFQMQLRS
For the next assay, the target named is Cytochrome P450 2C19 (Homo sapiens, UniProt P33261). Briefly: Mixed inhibition of CYP2C19 (unknown origin) by measuring inhibition constant. The format is ADME.
Sequence of Cytochrome P450 2C19 (P33261 whole entry): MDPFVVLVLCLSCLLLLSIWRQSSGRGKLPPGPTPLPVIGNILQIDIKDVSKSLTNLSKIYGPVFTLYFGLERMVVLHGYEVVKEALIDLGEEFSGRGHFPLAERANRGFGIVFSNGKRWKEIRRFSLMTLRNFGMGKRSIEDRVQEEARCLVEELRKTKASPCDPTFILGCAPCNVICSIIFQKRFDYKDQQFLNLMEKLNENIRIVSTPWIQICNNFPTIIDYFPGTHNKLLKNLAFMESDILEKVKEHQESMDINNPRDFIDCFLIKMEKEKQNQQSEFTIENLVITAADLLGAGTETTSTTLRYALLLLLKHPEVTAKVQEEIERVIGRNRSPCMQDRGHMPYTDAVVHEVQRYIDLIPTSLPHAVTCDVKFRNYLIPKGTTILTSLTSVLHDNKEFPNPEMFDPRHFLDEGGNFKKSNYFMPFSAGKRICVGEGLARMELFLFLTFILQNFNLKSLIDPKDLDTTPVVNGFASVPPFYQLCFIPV
Assay [2] addresses T2, Transient receptor potential cation channel subfamily V member 2 (Homo sapiens) (UniProt Q9Y5S1).
T2 sequence (whole entry): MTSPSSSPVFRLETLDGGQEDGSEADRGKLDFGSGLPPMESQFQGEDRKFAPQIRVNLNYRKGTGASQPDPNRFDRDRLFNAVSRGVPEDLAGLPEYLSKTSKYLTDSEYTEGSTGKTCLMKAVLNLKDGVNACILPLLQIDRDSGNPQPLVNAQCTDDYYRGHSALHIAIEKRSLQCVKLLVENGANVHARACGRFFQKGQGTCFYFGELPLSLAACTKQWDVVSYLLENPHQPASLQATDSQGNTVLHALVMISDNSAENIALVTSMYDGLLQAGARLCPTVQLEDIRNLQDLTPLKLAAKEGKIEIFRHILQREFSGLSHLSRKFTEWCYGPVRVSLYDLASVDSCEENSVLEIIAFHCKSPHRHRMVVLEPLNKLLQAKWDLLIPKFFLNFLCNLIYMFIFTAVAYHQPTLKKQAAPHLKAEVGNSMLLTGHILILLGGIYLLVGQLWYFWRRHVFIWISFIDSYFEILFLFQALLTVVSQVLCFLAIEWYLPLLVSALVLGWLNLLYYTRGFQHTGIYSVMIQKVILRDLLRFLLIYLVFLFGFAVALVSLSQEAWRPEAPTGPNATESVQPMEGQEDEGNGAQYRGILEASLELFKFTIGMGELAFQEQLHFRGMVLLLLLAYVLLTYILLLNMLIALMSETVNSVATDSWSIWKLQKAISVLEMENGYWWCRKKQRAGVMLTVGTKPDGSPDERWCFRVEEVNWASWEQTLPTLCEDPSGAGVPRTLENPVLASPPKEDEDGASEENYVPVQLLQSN
The assay can be described thus: Agonist activity at ionomycin-stimulated TRPV2 (unknown origin) activation assessed as efficacy relative to control. As to conditions: filed as agonist.

The target of assay [3] is Transient receptor potential cation channel subfamily M member 8 (Homo sapiens, UniProt Q7Z2W7). Briefly: Antagonist activity at TRPM8 (unknown origin) desensitization in presence of icilin.
Sequence of Transient receptor potential cation channel subfamily M member 8 (Q7Z2W7 whole entry): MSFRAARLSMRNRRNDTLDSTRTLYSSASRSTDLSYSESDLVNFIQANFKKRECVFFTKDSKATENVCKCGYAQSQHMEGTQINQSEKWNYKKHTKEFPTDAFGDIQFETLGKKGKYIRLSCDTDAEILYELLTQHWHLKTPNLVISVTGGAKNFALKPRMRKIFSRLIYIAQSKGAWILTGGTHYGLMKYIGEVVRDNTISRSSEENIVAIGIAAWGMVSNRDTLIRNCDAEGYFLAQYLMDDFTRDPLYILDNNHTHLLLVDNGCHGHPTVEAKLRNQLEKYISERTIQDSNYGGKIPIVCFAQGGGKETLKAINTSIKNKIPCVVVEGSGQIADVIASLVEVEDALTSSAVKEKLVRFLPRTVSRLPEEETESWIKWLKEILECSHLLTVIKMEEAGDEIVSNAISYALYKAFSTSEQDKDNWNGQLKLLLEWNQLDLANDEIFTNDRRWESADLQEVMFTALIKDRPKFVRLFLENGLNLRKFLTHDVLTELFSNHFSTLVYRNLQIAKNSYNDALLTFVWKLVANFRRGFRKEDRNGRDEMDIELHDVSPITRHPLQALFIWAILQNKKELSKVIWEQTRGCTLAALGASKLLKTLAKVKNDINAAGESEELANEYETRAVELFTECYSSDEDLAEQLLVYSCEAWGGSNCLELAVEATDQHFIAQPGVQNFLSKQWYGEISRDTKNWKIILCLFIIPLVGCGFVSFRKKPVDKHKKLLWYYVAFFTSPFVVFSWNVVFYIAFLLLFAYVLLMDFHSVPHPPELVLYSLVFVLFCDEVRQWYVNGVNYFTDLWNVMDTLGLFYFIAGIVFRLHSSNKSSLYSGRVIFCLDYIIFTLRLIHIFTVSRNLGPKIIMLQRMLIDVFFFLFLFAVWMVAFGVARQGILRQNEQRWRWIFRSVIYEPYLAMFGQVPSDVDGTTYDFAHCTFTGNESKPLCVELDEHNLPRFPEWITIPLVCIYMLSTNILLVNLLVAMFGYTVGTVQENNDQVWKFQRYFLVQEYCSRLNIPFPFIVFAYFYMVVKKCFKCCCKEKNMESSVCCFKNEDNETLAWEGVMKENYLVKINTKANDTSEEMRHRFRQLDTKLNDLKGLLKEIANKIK
The target of assay [4] is G-protein coupled receptor 6 (Homo sapiens, UniProt P46095). The assay can be described thus: Binding affinity to human GPR6 expressed in HEK293 cells assessed as reduction in cAMP level incubated for 1 hr by HTRF assay. Format: cell-based. (In general: cAMP levels reflect the balance of adenylyl cyclase and phosphodiesterase activity.)
Sequence of G-protein coupled receptor 6 (P46095 whole entry): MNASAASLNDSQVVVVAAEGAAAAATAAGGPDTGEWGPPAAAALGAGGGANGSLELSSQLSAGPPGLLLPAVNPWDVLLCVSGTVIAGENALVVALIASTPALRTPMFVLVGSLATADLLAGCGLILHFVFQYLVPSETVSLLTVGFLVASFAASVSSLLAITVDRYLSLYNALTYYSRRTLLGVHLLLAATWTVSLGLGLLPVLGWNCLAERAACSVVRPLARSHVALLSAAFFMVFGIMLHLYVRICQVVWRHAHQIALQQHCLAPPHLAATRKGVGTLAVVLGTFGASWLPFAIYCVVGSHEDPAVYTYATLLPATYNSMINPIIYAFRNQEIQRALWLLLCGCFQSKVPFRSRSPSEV
The target in a further assay is T3, Cytochrome P450 2B6 (Homo sapiens, UniProt P20813).
T3 sequence (P20813 whole entry): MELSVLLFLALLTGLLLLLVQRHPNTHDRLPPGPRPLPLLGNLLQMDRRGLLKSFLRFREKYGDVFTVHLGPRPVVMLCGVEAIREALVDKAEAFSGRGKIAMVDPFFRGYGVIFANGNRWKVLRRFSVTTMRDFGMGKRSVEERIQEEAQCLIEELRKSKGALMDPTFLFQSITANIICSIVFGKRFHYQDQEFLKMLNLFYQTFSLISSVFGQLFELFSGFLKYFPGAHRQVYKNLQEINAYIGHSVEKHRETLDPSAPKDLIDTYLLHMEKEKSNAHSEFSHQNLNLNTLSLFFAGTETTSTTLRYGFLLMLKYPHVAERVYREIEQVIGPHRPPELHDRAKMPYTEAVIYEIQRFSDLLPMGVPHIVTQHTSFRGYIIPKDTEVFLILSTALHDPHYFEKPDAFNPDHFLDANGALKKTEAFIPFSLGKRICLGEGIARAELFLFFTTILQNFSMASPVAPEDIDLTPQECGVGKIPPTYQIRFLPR
The assay can be described thus: Mixed inhibition of recombinant CYP2B6 (unknown origin) using coumarin as substrate in presence of NADPH-generating system. The format is ADME.

Assay [5] deals with Transient receptor potential cation channel subfamily A member 1 (Homo sapiens, UniProt O75762). The assay can be described thus: Agonist activity at TRPA1 (unknown origin) channel desensitization in presence of isothiocyanate.
Sequence of Transient receptor potential cation channel subfamily A member 1 (O75762 whole entry): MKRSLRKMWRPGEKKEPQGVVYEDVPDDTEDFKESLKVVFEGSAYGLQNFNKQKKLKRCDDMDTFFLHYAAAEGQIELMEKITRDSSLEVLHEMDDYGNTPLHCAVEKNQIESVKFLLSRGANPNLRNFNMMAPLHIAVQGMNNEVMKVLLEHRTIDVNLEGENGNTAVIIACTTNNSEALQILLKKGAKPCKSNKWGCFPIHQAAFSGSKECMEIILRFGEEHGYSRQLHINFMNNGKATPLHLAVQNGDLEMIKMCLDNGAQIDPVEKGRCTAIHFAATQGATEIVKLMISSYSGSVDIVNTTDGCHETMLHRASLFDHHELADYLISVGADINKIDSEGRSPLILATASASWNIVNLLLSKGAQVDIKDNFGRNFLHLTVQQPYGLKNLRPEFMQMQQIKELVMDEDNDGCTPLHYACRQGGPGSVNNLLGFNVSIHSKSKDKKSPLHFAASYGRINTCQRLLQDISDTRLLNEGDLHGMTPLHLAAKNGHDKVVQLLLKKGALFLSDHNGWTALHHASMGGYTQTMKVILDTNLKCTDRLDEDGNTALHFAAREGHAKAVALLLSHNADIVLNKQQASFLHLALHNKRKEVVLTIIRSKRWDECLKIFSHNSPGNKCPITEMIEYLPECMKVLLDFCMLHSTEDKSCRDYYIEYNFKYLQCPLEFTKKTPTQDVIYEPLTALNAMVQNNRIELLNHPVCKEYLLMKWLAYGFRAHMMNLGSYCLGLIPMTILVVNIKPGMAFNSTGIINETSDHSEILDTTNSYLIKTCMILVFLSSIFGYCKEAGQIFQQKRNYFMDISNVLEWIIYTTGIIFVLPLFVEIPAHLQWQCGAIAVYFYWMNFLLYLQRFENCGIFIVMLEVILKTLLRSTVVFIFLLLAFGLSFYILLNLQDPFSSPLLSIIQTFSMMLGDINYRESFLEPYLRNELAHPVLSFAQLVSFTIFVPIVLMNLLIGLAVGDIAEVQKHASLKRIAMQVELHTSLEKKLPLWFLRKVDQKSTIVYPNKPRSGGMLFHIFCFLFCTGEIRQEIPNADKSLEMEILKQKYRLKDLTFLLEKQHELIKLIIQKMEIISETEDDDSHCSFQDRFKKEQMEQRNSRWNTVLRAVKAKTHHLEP
Assay [6] has as its target T4, Transient receptor potential cation channel subfamily V member 3 (Homo sapiens) (UniProt Q8NET8).
T4 sequence (whole entry): T1 sequence (Q8NET8 whole entry)
The assay can be described thus: Agonist activity at ionomycin-stimulated TRPV3 (unknown origin) activation assessed as efficacy relative to control.

For assay [7], the target named is T5, Transient receptor potential cation channel subfamily V member 2 (Homo sapiens, UniProt Q9Y5S1).
T5 sequence (Q9Y5S1 whole entry): T2 sequence (whole entry)
The assay can be described thus: Agonist activity at ionomycin-stimulated TRPV2 (unknown origin) activation.

In assay [8] the target is Transient receptor potential cation channel subfamily V member 1 (Homo sapiens, UniProt Q8NER1). The assay can be described thus: Agonist activity at ionomycin-stimulated TRPV1 (unknown origin) activation assessed as efficacy relative to control.
Sequence of Transient receptor potential cation channel subfamily V member 1 (Q8NER1 whole entry): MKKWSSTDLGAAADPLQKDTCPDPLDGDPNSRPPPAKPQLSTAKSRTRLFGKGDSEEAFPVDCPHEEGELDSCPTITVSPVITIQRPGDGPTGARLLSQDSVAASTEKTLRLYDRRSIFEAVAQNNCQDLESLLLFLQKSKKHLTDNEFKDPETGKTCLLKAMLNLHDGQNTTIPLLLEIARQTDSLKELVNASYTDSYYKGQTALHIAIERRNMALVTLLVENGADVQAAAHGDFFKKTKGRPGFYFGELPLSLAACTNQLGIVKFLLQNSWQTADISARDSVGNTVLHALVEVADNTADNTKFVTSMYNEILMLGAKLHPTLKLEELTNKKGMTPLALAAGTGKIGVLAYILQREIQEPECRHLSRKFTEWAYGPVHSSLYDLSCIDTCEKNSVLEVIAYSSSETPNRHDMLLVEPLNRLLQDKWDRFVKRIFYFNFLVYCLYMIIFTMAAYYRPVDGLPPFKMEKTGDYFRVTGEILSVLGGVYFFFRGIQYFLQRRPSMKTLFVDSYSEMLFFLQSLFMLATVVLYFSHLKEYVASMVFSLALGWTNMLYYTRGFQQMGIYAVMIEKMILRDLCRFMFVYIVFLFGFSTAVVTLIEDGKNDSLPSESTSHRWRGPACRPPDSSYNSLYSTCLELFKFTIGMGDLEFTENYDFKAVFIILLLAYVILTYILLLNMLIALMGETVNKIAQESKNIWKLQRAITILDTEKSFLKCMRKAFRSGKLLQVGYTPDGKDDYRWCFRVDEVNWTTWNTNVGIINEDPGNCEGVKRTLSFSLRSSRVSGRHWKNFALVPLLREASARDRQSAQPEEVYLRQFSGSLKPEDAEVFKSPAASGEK
Assay [9] deals with G-protein coupled receptor 55 (Homo sapiens, UniProt Q9Y2T6). Briefly: Binding affinity to human GPR55 expressed in HEK293 cells assessed as LPI-stimulated ERK1/2 phosphorylation by measuring efficacy relative to control. The format is cell-based.
For another assay, the target named is Cytochrome P450 2D6 (Homo sapiens, UniProt P10635). The assay can be described thus: Inhibition of CYP2D6 in human liver microsomes in presence of NADPH-generating system incubated for 20 mins. Format: ADME, Microsome. A general note: Liver microsomes are a subcellular fraction often used to study metabolism.
Sequence of Cytochrome P450 2D6 (P10635 whole entry): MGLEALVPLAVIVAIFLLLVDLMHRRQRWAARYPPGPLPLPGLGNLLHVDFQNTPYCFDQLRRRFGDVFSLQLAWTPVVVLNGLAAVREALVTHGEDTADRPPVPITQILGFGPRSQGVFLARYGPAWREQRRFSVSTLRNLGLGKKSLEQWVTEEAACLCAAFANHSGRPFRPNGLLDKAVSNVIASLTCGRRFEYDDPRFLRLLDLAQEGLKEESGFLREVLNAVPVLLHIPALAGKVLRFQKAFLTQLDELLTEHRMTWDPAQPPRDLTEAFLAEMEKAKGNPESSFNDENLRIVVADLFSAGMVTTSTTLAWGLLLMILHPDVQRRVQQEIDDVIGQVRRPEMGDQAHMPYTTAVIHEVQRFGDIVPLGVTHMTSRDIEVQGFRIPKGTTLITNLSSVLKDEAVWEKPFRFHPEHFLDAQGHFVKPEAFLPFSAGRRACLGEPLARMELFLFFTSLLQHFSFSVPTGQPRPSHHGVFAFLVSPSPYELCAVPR

Molecules are shown by their SMILES.

With `C=C(C)[C@@H]1CCC(C)=C[C@H]1c1c(O)cc(CCC)cc1O` [CANNABIDIVARIN], the IC50 in [1] was found to be 25000 nM; in assay [3] it was 900 nM; at Cytochrome P450 2B6 it was 7400 nM; in assay [5], 1300 nM; on Cytochrome P450 2D6, 10200 nM. In addition, the Ki at Cytochrome P450 1A1 turned out to be 1600 nM; at Cytochrome P450 2C19 it was 1400 nM. Besides, the Efficacy amounted to 50% in assay [2], 16% in [6], 21% in assay [8] and 49% in [9]. Also, the EC50 in assay [4] amounted to 2400 nM; in [7], 7300 nM.

For orientation: IC50 means the midpoint of a concentration-inhibition curve. A word on the Ki: it is a measure of affinity in units of concentration, obtained from inhibition or displacement. By EC50 is commonly meant the midpoint of the concentration-response curve.

Source of the values: ChEMBL document CHEMBL5096151, “Phytocannabinoid Pharmacology: Medicinal Properties of Cannabis sativa Constituents Aside from the "Big Two"” (J Nat Prod, 2021).
